Measured values as given in patent US8802597B2, “Herbicidal pyrimidines” (E I du Pont de Nemours and Company, priority 2003, dated 2014).

Tests used:
Assay type in all cases: in vivo
[1] = test system: Surinam grass (Brachiaria decumbens); assay: Test B pre/postemergence
Summary of the method: (§1)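 Greenhouse whole-plant test; surfactant-containing non-phytotoxic solvent formulation; pre- and postemergence applications made simultaneously; post plants 2–18 cm, 1- to 4-leaf; visual scoring at 13–15 days on 0–100 scale relative to controls.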

[2] = test system: barnyardgrass (Echinochloa crus-galli); assay: Test B pre/postemergence
Summary of the method: as §1

[3] = test system: cocklebur (Xanthium strumarium); assay: Test B pre/postemergence
Summary of the method: as §1

corn (Zea mays) = assay: Test B pre/postemergence
Summary of the method: as §1

[4] = test system: crabgrass (Digitaria sanguinalis); assay: Test B pre/postemergence
Summary of the method: as §1

[5] = test system: giant foxtail (Setaria faberii); assay: Test B pre/postemergence
Summary of the method: as §1

[6] = test system: lambsquarters (Chenopodium album); assay: Test B pre/postemergence
Summary of the method: as §1

[7] = test system: morningglory (Ipomoea coccinea); assay: Test B pre/postemergence
Summary of the method: as §1

[8] = test system: pigweed (Amaranthus retroflexus); assay: Test B pre/postemergence
Summary of the method: as §1

[9] = test system: velvetleaf (Abutilon theophrasti); assay: Test B pre/postemergence
Summary of the method: as §1

[10] = test system: wheat (Triticum aestivum); assay: Test B pre/postemergence
Summary of the method: as §1

[11] = test system: blackgrass (Alopecurus myosuroides); assay: Test B postemergence; settings: for Blackgrass plant response rating: 125 g ai/ha, scale 0 to 100 (0 no effect, 100 complete control); for Plant response rating, Blackgrass: 500 g ai/ha, scale 0 to 100
Summary of the method: as §1

wild oat (Avena fatua) = assay: Test B postemergence; settings: for Oat, Wild plant response rating: 125 g ai/ha, scale 0 to 100 (0 no effect, 100 complete control); for Plant response rating, Oat, Wild: 500 g ai/ha, scale 0 to 100
Summary of the method: as §1

[12] = test system: barnyardgrass (Echinochloa crus-galli); assay: Test B flooded paddy test; settings: Flood, 1000 g ai/ha; scale 0 (no effect) to 100 (complete control)
Summary of the method: (§2)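 Plants were grown to the 2-leaf stage before treatment, then kept in a greenhouse for 13 to 15 days. Injury was rated visually against untreated controls on a 0 to 100 scale, where 0 is no effect and 100 is complete control.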

[13] = test system: duck salad (Heteranthera limosa); assay: Test B flooded paddy test; settings: Flood, 1000 g ai/ha; scale 0 to 100
Summary of the method: as §2

rice (Oryza sativa) = assay: Test B flooded paddy test; settings: Flood, 1000 g ai/ha; scale 0 to 100
Summary of the method: as §2

[14] = test system: umbrella sedge (Cyperus difformis); assay: Test B flooded paddy test; settings: Flood, 1000 g ai/ha; scale 0 to 100
Summary of the method: as §2

[15] = Postemergence, 125 g ai/ha, scale 0 to 100 (0 no effect, 100 complete control)
[16] = Postemergence, 500 g ai/ha, scale 0 to 100
[17] = Preemergence, 125 g ai/ha, scale 0 to 100 (0 no effect, 100 complete control)
[18] = Preemergence, 500 g ai/ha, scale 0 to 100 (0 no effect, 100 complete control)

Structure (SMILES): CNN=Cc1nc(C2CC2)nc(N)c1Br [Compound 49]
- Surinam Grass plant response rating [1, 15]: 10
- Plant response rating, Surinam Grass [1, 16]: 60
- Plant response rating, Surinam Grass [1, 17]: 40
- Surinam Grass plant response rating [1, 18]: 60
- Barnyardgrass plant response rating [2, 15]: 30
- Plant response rating, Barnyardgrass [2, 16]: 70
- Plant response rating, Barnyardgrass [2, 17]: 30
- Barnyardgrass plant response rating [2, 18]: 60
- Cocklebur plant response rating [3, 15]: 90
- Plant response rating, Cocklebur [3, 16]: 100
- Plant response rating, Cocklebur [3, 17]: 80
- Cocklebur plant response rating [3, 18]: 90
- Corn plant response rating (corn (Zea mays); [15]): 0
- Plant response rating, Corn (corn (Zea mays); [16]): 30
- Plant response rating, Corn (corn (Zea mays); [17]): 10
- Corn plant response rating (corn (Zea mays); [18]): 40
- Crabgrass plant response rating [4, 15]: 30
- Plant response rating, Crabgrass [4, 16]: 80
- Plant response rating, Crabgrass [4, 17]: 80
- Crabgrass plant response rating [4, 18]: 90
- Foxtail, Giant plant response rating [5, 15]: 10
- Plant response rating, Foxtail, Giant [5, 16]: 70
- Plant response rating, Foxtail, Giant [5, 17]: 40
- Foxtail, Giant plant response rating [5, 18]: 70
- Lambsquarters plant response rating [6, 15]: 80
- Plant response rating, Lambsquarters [6, 16]: 90
- Plant response rating, Lambsquarters [6, 17]: 90
- Lambsquarters plant response rating [6, 18]: 100
- Morningglory plant response rating [7, 15]: 90
- Plant response rating, Morningglory [7, 16]: 100
- Plant response rating, Morningglory [7, 17]: 80
- Morningglory plant response rating [7, 18]: 100
- Pigweed plant response rating [8, 15]: 90
- Plant response rating, Pigweed [8, 16]: 90
- Plant response rating, Pigweed [8, 17]: 90
- Pigweed plant response rating [8, 18]: 100
- Velvetleaf plant response rating [9, 15]: 50
- Plant response rating, Velvetleaf [9, 16]: 80
- Plant response rating, Velvetleaf [9, 17]: 80
- Velvetleaf plant response rating [9, 18]: 90
- Wheat plant response rating [10, 15]: 30
- Plant response rating, Wheat [10, 16]: 40
- Plant response rating, Wheat [10, 17]: 30
- Plant response rating, Wheat [10, 18]: 70
- Blackgrass plant response rating [11]: 20
- Plant response rating, Blackgrass [11]: 50
- Oat, Wild plant response rating (wild oat (Avena fatua)): 30
- Plant response rating, Oat, Wild (wild oat (Avena fatua)): 60
- Plant response rating, Barnyardgrass [12]: 50
- Plant response rating, Ducksalad [13]: 60
- Plant response rating, Rice (rice (Oryza sativa)): 30
- Plant response rating, Sedge, Umbrella [14]: 70

Structure (SMILES): CCOC(=O)c1nc(-c2ccc(Cl)cc2)nc(N)c1Br [Compound 37]
- Surinam Grass plant response rating [1, 15]: 20
- Plant response rating, Surinam Grass [1, 16]: 70
- Surinam Grass plant response rating [1, 18]: 40
- Barnyardgrass plant response rating [2, 15]: 0
- Plant response rating, Barnyardgrass [2, 16]: 90
- Plant response rating, Barnyardgrass [2, 17]: 10
- Barnyardgrass plant response rating [2, 18]: 40
- Cocklebur plant response rating [3, 15]: 100
- Plant response rating, Cocklebur [3, 16]: 100
- Plant response rating, Cocklebur [3, 17]: 20
- Cocklebur plant response rating [3, 18]: 80
- Corn plant response rating (corn (Zea mays); [15]): 0
- Plant response rating, Corn (corn (Zea mays); [16]): 70
- Plant response rating, Corn (corn (Zea mays); [17]): 0
- Corn plant response rating (corn (Zea mays); [18]): 10
- Crabgrass plant response rating [4, 15]: 60
- Plant response rating, Crabgrass [4, 16]: 80
- Plant response rating, Crabgrass [4, 17]: 50
- Crabgrass plant response rating [4, 18]: 90
- Foxtail, Giant plant response rating [5, 15]: 10
- Plant response rating, Foxtail, Giant [5, 16]: 60
- Plant response rating, Foxtail, Giant [5, 17]: 10
- Foxtail, Giant plant response rating [5, 18]: 60
- Lambsquarters plant response rating [6, 15]: 100
- Plant response rating, Lambsquarters [6, 16]: 100
- Plant response rating, Lambsquarters [6, 17]: 100
- Lambsquarters plant response rating [6, 18]: 100
- Morningglory plant response rating [7, 15]: 90
- Plant response rating, Morningglory [7, 16]: 100
- Plant response rating, Morningglory [7, 17]: 10
- Morningglory plant response rating [7, 18]: 50
- Pigweed plant response rating [8, 15]: 100
- Plant response rating, Pigweed [8, 16]: 100
- Plant response rating, Pigweed [8, 17]: 100
- Pigweed plant response rating [8, 18]: 100
- Velvetleaf plant response rating [9, 15]: 80
- Plant response rating, Velvetleaf [9, 16]: 100
- Plant response rating, Velvetleaf [9, 17]: 40
- Velvetleaf plant response rating [9, 18]: 80
- Wheat plant response rating [10, 15]: 0
- Plant response rating, Wheat [10, 16]: 60
- Plant response rating, Wheat [10, 17]: 30
- Plant response rating, Wheat [10, 18]: 60
- Blackgrass plant response rating [11]: 40
- Plant response rating, Blackgrass [11]: 60
- Oat, Wild plant response rating (wild oat (Avena fatua)): 0
- Plant response rating, Oat, Wild (wild oat (Avena fatua)): 0
- Plant response rating, Barnyardgrass [12]: 20
- Plant response rating, Ducksalad [13]: 100
- Plant response rating, Rice (rice (Oryza sativa)): 0
- Plant response rating, Sedge, Umbrella [14]: 90

Structure (SMILES): CCOC(=O)c1nc(C2CC2)nc(N=CN(C)C)c1Br [Compound 40]
- Surinam Grass plant response rating [1, 15]: 0
- Plant response rating, Surinam Grass [1, 16]: 70
- Plant response rating, Surinam Grass [1, 17]: 50
- Surinam Grass plant response rating [1, 18]: 70
- Barnyardgrass plant response rating [2, 15]: 0
- Plant response rating, Barnyardgrass [2, 16]: 90
- Plant response rating, Barnyardgrass [2, 17]: 50
- Barnyardgrass plant response rating [2, 18]: 90
- Cocklebur plant response rating [3, 15]: 0
- Plant response rating, Cocklebur [3, 16]: 90
- Plant response rating, Cocklebur [3, 17]: 90
- Cocklebur plant response rating [3, 18]: 100
- Corn plant response rating (corn (Zea mays); [15]): 0
- Plant response rating, Corn (corn (Zea mays); [16]): 60
- Plant response rating, Corn (corn (Zea mays); [17]): 0
- Corn plant response rating (corn (Zea mays); [18]): 50
- Crabgrass plant response rating [4, 15]: 0
- Plant response rating, Crabgrass [4, 16]: 80
- Plant response rating, Crabgrass [4, 17]: 60
- Crabgrass plant response rating [4, 18]: 80
- Foxtail, Giant plant response rating [5, 15]: 0
- Plant response rating, Foxtail, Giant [5, 16]: 60
- Plant response rating, Foxtail, Giant [5, 17]: 20
- Foxtail, Giant plant response rating [5, 18]: 80
- Lambsquarters plant response rating [6, 15]: 0
- Plant response rating, Lambsquarters [6, 16]: 100
- Plant response rating, Lambsquarters [6, 17]: 100
- Lambsquarters plant response rating [6, 18]: 100
- Morningglory plant response rating [7, 15]: 0
- Plant response rating, Morningglory [7, 16]: 100
- Plant response rating, Morningglory [7, 17]: 90
- Morningglory plant response rating [7, 18]: 100
- Pigweed plant response rating [8, 15]: 0
- Plant response rating, Pigweed [8, 16]: 100
- Plant response rating, Pigweed [8, 17]: 90
- Pigweed plant response rating [8, 18]: 100
- Velvetleaf plant response rating [9, 15]: 0
- Plant response rating, Velvetleaf [9, 16]: 90
- Plant response rating, Velvetleaf [9, 17]: 90
- Velvetleaf plant response rating [9, 18]: 90
- Wheat plant response rating [10, 15]: 50
- Plant response rating, Wheat [10, 16]: 60
- Plant response rating, Wheat [10, 17]: 40
- Plant response rating, Wheat [10, 18]: 70
- Blackgrass plant response rating [11]: 50
- Plant response rating, Blackgrass [11]: 60
- Oat, Wild plant response rating (wild oat (Avena fatua)): 40
- Plant response rating, Oat, Wild (wild oat (Avena fatua)): 60
- Plant response rating, Barnyardgrass [12]: 70
- Plant response rating, Ducksalad [13]: 80
- Plant response rating, Rice (rice (Oryza sativa)): 60
- Plant response rating, Sedge, Umbrella [14]: 70
